Results reported in article PMC7179119, “A New Positron Emission Tomography Probe for Orexin Receptors Neuroimaging” (Molecules, 2020).
Read-outs that look alike come from different tables or passages of the source.

Columns and labels:
Experiment in all cases: PDSP off-target radioligand binding assay
Alpha2B = molecular target: T1, Alpha2B (Homo sapiens, UniProt P18089)
T1 construct: NIMH PDSP
T1 sequence (P18089 1-450): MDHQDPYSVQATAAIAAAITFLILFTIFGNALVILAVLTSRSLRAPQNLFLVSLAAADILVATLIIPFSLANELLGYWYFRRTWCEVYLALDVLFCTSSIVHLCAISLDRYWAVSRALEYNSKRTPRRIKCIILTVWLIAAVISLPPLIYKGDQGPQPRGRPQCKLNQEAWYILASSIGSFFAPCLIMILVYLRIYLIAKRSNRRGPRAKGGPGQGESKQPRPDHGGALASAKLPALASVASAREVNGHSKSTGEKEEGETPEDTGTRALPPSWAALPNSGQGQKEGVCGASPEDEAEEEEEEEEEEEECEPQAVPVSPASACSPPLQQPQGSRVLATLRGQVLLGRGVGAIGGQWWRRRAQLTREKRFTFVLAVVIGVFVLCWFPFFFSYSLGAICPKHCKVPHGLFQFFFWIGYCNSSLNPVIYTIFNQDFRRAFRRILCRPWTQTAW
Experimental: (§1) Table S1. Off binding data of CW24.
(§2) The off-target binding assays were performed at PDSP with their standard protocol (https://pdspdb.unc.edu/pdspWeb/content/UNC-CH%20Protocol%20Book.pdf). In radioligand binding assays, CW24 was tested at a single concentration (10 µM) and in quadruplicate in 96-well plates. The binding assays were carried out in a final of volume of 125 µl per well in appropriate binding buffers. The hot ligand concentration is usually at a concentration close to the Kd (unless otherwise indicated). Total binding and nonspecific binding are determined in the absence and presence of 10 µM of the appropriate reference compound, respectively. In brief, plates are usually incubated at room temperature and in the dark for 90 mins. Reactions are stopped by vacuum filtration onto 0.3% polyethyleneimine (PEI) soaked 96-well filter mats using a 96-well Filtermate harvester, followed by three washes with cold wash buffers (for details, see Tables 2 to 24). Scintillation cocktail is then melted onto the microwave-dried filters on a hot plate and radioactivity is counted in a Microbeta counter.
(§3) Receptor % Inhibition 1 % Inhibition 2 % Inhibition 3 % Inhibition 4 Mean±SD %

MOR = MOR (Homo sapiens, UniProt P35372)
Experimental: as §1, §2, §3

M5 = molecular target: T2, M5 (Homo sapiens, UniProt P08912)
T2 sequence (P08912 1-532): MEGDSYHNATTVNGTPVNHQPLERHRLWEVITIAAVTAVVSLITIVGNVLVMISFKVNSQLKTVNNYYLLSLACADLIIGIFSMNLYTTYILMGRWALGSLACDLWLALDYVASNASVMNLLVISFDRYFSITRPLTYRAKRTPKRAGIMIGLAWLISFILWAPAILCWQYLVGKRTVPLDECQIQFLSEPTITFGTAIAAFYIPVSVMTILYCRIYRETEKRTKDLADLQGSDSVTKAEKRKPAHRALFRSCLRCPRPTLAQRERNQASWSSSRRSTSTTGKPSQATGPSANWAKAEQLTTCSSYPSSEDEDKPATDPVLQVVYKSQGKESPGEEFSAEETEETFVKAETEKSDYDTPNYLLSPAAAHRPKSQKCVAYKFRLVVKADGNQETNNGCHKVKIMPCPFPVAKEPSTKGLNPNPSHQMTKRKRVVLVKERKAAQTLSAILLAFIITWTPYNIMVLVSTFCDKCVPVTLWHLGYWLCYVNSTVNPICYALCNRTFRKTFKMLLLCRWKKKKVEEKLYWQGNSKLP
Experimental: as §1, §2, §3

5-HT1E = molecular target: T3, 5-HT1E (Homo sapiens, UniProt P28566)
T3 construct: NIMH PDSP
Experimental: as §1, §2, §3

GABAA = conditions: 10 µM
Experimental: as §1, §2, §3

5-HT6 = molecular target: T4, 5-HT6 (Homo sapiens, UniProt P50406)
T4 construct: NIMH PDSP
Experimental: as §1, §2, §3

5-HT2C = molecular target: T5, 5-HT2C (Homo sapiens, UniProt P28335)
T5 construct: NIMH PDSP
T5 sequence (P28335 33-458): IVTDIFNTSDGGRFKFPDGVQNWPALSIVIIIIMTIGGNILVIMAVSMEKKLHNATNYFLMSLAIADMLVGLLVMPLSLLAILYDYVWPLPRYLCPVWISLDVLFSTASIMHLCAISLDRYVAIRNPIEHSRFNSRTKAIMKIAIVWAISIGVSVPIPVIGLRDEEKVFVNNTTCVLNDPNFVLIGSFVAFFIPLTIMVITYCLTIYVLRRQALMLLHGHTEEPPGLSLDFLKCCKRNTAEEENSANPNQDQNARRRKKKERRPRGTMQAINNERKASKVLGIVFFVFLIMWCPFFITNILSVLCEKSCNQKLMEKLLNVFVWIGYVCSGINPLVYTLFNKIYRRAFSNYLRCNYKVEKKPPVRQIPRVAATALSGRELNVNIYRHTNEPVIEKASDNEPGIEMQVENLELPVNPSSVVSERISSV
Experimental: as §1, §2, §3

[1] = quadruplicate, read-out: Mean±SD % inhibition
[2] = replicate 1, read-out: % Inhibition 1
[3] = replicate 2, read-out: % Inhibition 2
[4] = replicate 3, read-out: % Inhibition 3
[5] = replicate 4, read-out: % Inhibition 4

MOR, sequence (P35372 whole entry): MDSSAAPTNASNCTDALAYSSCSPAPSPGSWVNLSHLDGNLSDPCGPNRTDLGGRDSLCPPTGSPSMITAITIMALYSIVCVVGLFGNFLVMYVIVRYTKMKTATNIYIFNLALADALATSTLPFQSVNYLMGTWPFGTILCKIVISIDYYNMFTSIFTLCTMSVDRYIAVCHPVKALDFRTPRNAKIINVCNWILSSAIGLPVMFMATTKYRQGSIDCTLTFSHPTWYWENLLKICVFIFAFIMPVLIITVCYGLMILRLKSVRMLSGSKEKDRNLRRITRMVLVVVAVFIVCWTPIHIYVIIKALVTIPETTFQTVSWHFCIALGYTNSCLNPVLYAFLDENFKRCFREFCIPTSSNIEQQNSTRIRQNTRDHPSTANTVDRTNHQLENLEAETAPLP
T4 sequence (P50406 whole entry, species assumed): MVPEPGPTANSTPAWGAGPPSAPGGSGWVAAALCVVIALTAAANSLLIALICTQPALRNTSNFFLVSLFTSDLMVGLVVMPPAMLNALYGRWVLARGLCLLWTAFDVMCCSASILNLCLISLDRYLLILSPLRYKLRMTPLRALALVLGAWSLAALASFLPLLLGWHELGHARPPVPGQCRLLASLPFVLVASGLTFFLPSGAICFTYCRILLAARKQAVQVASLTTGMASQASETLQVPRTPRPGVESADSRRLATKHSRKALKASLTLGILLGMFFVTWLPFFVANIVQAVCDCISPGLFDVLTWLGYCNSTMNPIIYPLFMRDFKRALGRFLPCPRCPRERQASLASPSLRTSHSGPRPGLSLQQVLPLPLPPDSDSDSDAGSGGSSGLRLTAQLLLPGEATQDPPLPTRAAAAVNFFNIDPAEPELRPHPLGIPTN
T3 sequence (P28566 whole entry, species assumed): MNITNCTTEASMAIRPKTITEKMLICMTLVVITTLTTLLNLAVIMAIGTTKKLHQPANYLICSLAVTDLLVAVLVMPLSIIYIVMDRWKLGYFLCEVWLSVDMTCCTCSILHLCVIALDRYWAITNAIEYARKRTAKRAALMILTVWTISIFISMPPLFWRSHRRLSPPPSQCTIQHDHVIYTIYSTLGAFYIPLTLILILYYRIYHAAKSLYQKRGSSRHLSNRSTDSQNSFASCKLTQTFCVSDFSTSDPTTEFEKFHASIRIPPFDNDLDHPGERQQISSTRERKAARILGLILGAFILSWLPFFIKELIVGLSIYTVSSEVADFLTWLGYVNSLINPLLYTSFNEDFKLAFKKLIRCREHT

Question: `COc1ccnc(N2CCC3(CCCN(Cc4cn(C)c5ccccc45)C3=O)CC2)n1` [CW24] was tested. Which inhibition at 10 µM (Alpha2B; [1]) did it give?
Answer: -9.5 ± 13.4%

Question: And the inhibition at 10 µM (Alpha2B; [2])?
Answer: -8.15%

Question: What about the inhibition at 10 µM (Alpha2B; [3]) of the same compound?
Answer: -23.6%

Question: And the inhibition at 10 µM (Alpha2B; [4])?
Answer: -14.5%

Question: What about the inhibition at 10 µM (Alpha2B; [5]) of the same compound?
Answer: 8.29%

Question: What about the inhibition at 10 µM (MOR; [1]) of the same compound?
Answer: -2.04 ± 10.4%

Question: What about the inhibition at 10 µM (MOR; [2]) of the same compound?
Answer: 5.06%

Question: What about the inhibition at 10 µM (MOR; [3]) of the same compound?
Answer: -11.3%

Question: What about the inhibition at 10 µM (MOR; [4]) of the same compound?
Answer: 8.74%

Question: And the inhibition at 10 µM (MOR; [5])?
Answer: -10.6%

Question: And the inhibition at 10 µM (M5; [1])?
Answer: 27.4 ± 11.1%

Question: What about the inhibition at 10 µM (M5; [2]) of the same compound?
Answer: 15.3%

Question: And the inhibition at 10 µM (M5; [3])?
Answer: 31.9%

Question: And the inhibition at 10 µM (M5; [4])?
Answer: 40.5%

Question: What about the inhibition at 10 µM (M5; [5]) of the same compound?
Answer: 21.6%

Question: And the inhibition at 10 µM (5-HT1E; [1])?
Answer: 18.8 ± 12.2%

Question: What about the inhibition at 10 µM (5-HT1E; [2]) of the same compound?
Answer: 31.3%

Question: And the inhibition at 10 µM (5-HT1E; [3])?
Answer: 19.5%

Question: What about the inhibition at 10 µM (5-HT1E; [4]) of the same compound?
Answer: 22.5%

Question: What about the inhibition at 10 µM (5-HT1E; [5]) of the same compound?
Answer: 2.07%

Question: What about the “Mean±SD % inhibition” value (GABAA; quadruplicate) of the same compound?
Answer: 11.56 ± 11.5%

Question: And the “% Inhibition 1” value (GABAA; replicate 1)?
Answer: 24.87%

Question: What about the “% Inhibition 2” value (GABAA; replicate 2) of the same compound?
Answer: 0.04%

Question: And the “% Inhibition 3” value (GABAA; replicate 3)?
Answer: 4%

Question: What about the “% Inhibition 4” value (GABAA; replicate 4) of the same compound?
Answer: 17.31%

Question: And the inhibition at 10 µM (5-HT6; [1])?
Answer: 5.73 ± 17.3%

Question: And the inhibition at 10 µM (5-HT6; [2])?
Answer: 17.7%

Question: And the inhibition at 10 µM (5-HT6; [3])?
Answer: 23.2%

Question: And the inhibition at 10 µM (5-HT6; [4])?
Answer: -12.3%

Question: What about the inhibition at 10 µM (5-HT6; [5]) of the same compound?
Answer: -5.73%

Question: What about the inhibition at 10 µM (5-HT2C; [1]) of the same compound?
Answer: 14.3 ± 40.6%

Question: And the inhibition at 10 µM (5-HT2C; [2])?
Answer: 28.8%

Question: And the inhibition at 10 µM (5-HT2C; [3])?
Answer: -38.5%

Question: And the inhibition at 10 µM (5-HT2C; [4])?
Answer: 8.5%

Question: What about the inhibition at 10 µM (5-HT2C; [5]) of the same compound?
Answer: 58.2%
